Experimental data from patent publication US20260263442A1, “METHOD FOR TREATING L-DOPA-INDUCED DYSKINESIA USING BEFIRADOL” (Neurolixis, Inc., priority 2023, published 2026).
Like-named read-outs stand apart in the source and are kept apart here.

Experiments:
[1] = tested on: anxiety and depression in PD patients with LID; assay: Hospital Anxiety Depression Scale (HADS), Phase 2a study; type: in vivo, human
Source text: The HADS is used to determine the levels of anxiety and depression that a person is experiencing. The questionnaire consists of 7 items related to anxiety and 7 related to depression. Each item on the questionnaires is scored from 0-3, which means that a person can score between 0 and 21 for either anxiety or depression.

[2] = tested on: sleepiness in PD patients with LID; assay: Epworth Sleepiness Scale (ESS), Phase 2a study; type: in vivo, human
Source text: The ESS is a self-administered questionnaire with 8 questions. Respondents are asked to rate, on a 4-point scale (0-3), their usual chances of dozing off or falling asleep while engaged in 8 different activities. The ESS score (the sum of 8 item scores, 0-3) can range from 0 to 24. Ratings are based on the previous month, or in the case of this study, the intervening period since the previous clinic visit (about 3 weeks).

[3] = tested on: overall PD symptoms in PD patients with LID; type: in vivo, human
Source text: The CGI-C is a clinician-oriented scale that assesses the total improvement in the patient's condition relative to the clinical global impression of severity (CGI-S) scale conducted at baseline. The CGI-C rates the patient's condition from 0 to 7, with a rating of 0 indicating “no assessment”, a rating of 1 indicating “very much better”, and a rating of 7 indicating “very much worse”.

[4] = tested on: overactive bladder in PD patients with LID; assay: ICIQ Overactive Bladder Module (ICIQ-OAB), Phase 2a study; type: in vivo, human
Source text: The ICIQ-OAB provides a brief and robust measure to assess the impact of symptoms of overactive bladder on quality of life and outcome of treatment. It is a 4-item patient reported outcome covering 4 domains of bladder function: frequency, nocturia, urgency, and urge urinary incontinence. Each item is scored by frequency of 0-4, for a total score of 0-16. Ratings would be based on the previous month or since the last clinic visit. Efficacy would be assessed as change from the baseline total score.

[5] = tested on: MPTP-treated marmosets; settings: cited from earlier work
[6] = Baseline, Per Protocol Set, n = 15
[7] = change from baseline at day 28 (end of up-titration period), Per Protocol Set, n = 15
[8] = change from baseline at day 42 (end of stable dosing period), Per Protocol Set, n = 15

With `Cc1ccc(CNCC2(F)CCN(C(=O)c3ccc(F)c(Cl)c3)CC2)nc1` [NLX-112] as the compound, how does the “HADS (Anxiety), Baseline, mean (S.D.)” value [1, 6] read?
The value was 4.5 (2.5).

What about the “HADS (Depression), Baseline, mean (S.D.)” value [1, 6] of the same compound?
Its value is 3.7 (2.7).

What about the “Anxiety and depression (HADS), effect” value ([1]; Days 28 or 42) of the same compound?
Its value is “no consistent statistically significant effect”.

What about the “HADS (Anxiety), Δ D28, mean (S.D.)” value [1, 7] of the same compound?
Its value is −0.5 (2.5).

And the “HADS (Depression), Δ D28, mean (S.D.)” value [1, 7]?
Its value is −0.4 (1.7).

What about the “HADS (Depression), Δ D42, mean (S.D.)” value [1, 8] of the same compound?
Its value is −0.6 (1.9).

And the “ESS, Baseline, mean (S.D.)” value [2, 6]?
The value was 8.3 (5.2).

And the “Sleepiness (ESS), effect” value ([2]; Days 28 or 42)?
Its value is “no consistent statistically significant effect”.

And the “ESS, Δ D28, mean (S.D.)” value [2, 7]?
The value was −1.1 (3.3).

And the “ESS, Δ D42, mean (S.D.)” value [2, 8]?
The value was −0.9 (3.4).

And the “CGI-C, proportion of patients improved (minimally, much or very much improved)” value ([3]; day 28)?
The value was 33%.

What about the “CGI-C, proportion of patients improved (minimally, much or very much improved)” value ([3]; day 42) of the same compound?
The value was 53%.

And the “Incontinence (ICIQ-OAB), effect” value ([4]; Days 28 or 42)?
The value was “no consistent statistically significant effect”.

And the “ICIQ-OAB, Δ D28, mean (S.D.)” value [4, 7]?
Its value is 0.7 (6.5).

What about the “ICIQ-OAB, Δ D42, mean (S.D.)” value [4, 8] of the same compound?
Its value is −0.8 (8.02).

What about the Disability scores [5] of the same compound?
Its Disability scores is “reduces disability scores”.
